Paper PMC11637875, “Discovery of novel PARP1/NRP1 dual-targeting inhibitors with strong antitumor potency” (Frontiers in Pharmacology, 2024)

Legend:
FLT4 = FLT4 (Homo sapiens, UniProt P35916); experiment: Selectivity profile (123 kinase panel); format: biochemical
EPHA8 = EPHA8 (Homo sapiens, UniProt P29322); experiment: Selectivity profile (123 kinase panel); format: biochemical
AMPKα1/β1/γ1 = AMPKα1/β1/γ1 (Homo sapiens, UniProt P54619+Q13131+Q9Y478); experiment: Selectivity profile (123 kinase panel); format: biochemical
AMPKα1/β1/γ1, sequence (Q13131 whole entry): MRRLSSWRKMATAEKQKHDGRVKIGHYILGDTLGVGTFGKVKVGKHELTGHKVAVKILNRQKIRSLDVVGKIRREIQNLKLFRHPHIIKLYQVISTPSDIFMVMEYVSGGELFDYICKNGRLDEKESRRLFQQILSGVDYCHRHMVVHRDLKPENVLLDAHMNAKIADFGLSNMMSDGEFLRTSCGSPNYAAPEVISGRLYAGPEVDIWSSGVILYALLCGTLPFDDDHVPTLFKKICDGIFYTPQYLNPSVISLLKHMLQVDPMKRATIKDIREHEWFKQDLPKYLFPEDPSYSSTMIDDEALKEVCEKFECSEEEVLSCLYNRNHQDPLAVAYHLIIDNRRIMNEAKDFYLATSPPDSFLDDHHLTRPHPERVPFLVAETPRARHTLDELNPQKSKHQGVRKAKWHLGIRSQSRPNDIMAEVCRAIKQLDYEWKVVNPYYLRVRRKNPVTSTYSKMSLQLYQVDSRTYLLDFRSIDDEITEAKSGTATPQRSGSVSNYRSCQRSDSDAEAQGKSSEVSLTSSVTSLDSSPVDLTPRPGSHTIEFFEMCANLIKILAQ
AMPKα1/β1/γ1, sequence (Q9Y478 whole entry partner): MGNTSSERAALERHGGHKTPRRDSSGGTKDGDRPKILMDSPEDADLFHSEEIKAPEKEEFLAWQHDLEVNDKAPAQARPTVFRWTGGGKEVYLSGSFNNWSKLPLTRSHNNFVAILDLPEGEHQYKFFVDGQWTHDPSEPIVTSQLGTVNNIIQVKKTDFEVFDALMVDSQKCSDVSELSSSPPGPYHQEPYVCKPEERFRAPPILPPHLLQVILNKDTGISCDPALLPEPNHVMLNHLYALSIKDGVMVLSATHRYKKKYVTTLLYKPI
AMPKα1/β1/γ1, sequence (P54619 whole entry partner): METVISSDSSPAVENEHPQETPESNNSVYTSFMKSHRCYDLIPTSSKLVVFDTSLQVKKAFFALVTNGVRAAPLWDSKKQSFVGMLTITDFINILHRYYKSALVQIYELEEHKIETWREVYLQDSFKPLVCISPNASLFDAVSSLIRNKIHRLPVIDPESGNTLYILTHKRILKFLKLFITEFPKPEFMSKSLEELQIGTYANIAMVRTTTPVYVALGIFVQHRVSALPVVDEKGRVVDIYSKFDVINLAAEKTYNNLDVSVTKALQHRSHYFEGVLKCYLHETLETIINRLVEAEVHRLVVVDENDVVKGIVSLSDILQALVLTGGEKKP

JAK1 = JAK1 (Homo sapiens, UniProt P23458); experiment: Selectivity profile (123 kinase panel); format: biochemical
HIPK4 = HIPK4 (Homo sapiens, UniProt Q8NE63); experiment: Selectivity profile (123 kinase panel); format: biochemical
GLK = GLK (Homo sapiens, UniProt Q8IVH8); experiment: Selectivity profile (123 kinase panel); format: biochemical
FER = FER (Homo sapiens, UniProt P16591); experiment: Selectivity profile (123 kinase panel); format: biochemical
MSK1 = MSK1 (Homo sapiens, UniProt O75582); experiment: Selectivity profile (123 kinase panel); format: biochemical
MSK1, sequence (O75582 whole entry): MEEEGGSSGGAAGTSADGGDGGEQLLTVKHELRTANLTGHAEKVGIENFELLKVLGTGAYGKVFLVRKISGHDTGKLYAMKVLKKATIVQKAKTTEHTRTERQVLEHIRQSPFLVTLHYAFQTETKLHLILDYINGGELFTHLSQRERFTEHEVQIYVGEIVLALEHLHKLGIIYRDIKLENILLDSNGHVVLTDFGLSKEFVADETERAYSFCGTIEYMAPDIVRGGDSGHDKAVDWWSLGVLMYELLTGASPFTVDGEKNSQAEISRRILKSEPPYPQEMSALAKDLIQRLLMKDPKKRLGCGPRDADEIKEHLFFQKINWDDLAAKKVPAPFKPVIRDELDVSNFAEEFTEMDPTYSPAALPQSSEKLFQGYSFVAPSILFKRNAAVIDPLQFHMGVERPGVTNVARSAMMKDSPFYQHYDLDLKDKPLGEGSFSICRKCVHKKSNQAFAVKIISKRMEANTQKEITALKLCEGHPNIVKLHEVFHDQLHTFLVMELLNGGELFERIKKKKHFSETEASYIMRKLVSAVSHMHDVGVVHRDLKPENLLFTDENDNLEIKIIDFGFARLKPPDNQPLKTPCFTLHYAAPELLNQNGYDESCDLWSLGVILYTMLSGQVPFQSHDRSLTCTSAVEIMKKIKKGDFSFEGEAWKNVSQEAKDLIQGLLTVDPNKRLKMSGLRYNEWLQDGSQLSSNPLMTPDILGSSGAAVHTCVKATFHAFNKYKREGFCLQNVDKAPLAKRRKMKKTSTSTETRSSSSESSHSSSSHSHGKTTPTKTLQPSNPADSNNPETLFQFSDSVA

DYRK4 = DYRK4 (Homo sapiens, UniProt Q9NR20); experiment: Selectivity profile (123 kinase panel); format: biochemical
ALK = ALK (Homo sapiens, UniProt Q9UM73); experiment: Selectivity profile (123 kinase panel); format: biochemical
NEK2 = NEK2 (Homo sapiens, UniProt P51955); experiment: Selectivity profile (123 kinase panel); format: biochemical
CLK1 = CLK1 (Homo sapiens, UniProt P49759); experiment: Selectivity profile (123 kinase panel); format: biochemical
CK1α = CK1α (Homo sapiens, UniProt P48729); experiment: Selectivity profile (123 kinase panel); format: biochemical
HIPK1 = HIPK1 (Homo sapiens, UniProt Q86Z02); experiment: Selectivity profile (123 kinase panel); format: biochemical
ALK6 = ALK6 (Homo sapiens, UniProt O00238); experiment: Selectivity profile (123 kinase panel); format: biochemical
ALK6, sequence (O00238 14-502): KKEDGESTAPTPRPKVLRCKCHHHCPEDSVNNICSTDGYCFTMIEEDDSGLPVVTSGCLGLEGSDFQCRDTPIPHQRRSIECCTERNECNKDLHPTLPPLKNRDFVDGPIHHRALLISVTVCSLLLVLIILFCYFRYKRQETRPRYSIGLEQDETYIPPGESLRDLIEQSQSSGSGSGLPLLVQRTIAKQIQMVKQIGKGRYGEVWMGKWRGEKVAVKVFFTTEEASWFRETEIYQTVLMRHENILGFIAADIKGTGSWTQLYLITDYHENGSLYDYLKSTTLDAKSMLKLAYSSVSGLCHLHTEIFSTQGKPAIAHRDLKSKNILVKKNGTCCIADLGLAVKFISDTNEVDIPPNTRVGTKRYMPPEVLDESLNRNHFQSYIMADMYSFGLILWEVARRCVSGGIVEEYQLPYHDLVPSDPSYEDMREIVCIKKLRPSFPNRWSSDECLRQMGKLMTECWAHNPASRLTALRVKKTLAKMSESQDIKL

BLK = BLK (Homo sapiens, UniProt P51451); experiment: Selectivity profile (123 kinase panel); format: biochemical
MET = MET (Homo sapiens, UniProt P08581); experiment: Selectivity profile (123 kinase panel); format: biochemical
CSK = CSK (Homo sapiens, UniProt P41240); experiment: Selectivity profile (123 kinase panel); format: biochemical
BRAF = BRAF (Homo sapiens, UniProt P15056); experiment: Selectivity profile (123 kinase panel); format: biochemical
CK1ε = CK1ε (Homo sapiens, UniProt P49674); experiment: Selectivity profile (123 kinase panel); format: biochemical
CK1ε, sequence (P49674 whole entry): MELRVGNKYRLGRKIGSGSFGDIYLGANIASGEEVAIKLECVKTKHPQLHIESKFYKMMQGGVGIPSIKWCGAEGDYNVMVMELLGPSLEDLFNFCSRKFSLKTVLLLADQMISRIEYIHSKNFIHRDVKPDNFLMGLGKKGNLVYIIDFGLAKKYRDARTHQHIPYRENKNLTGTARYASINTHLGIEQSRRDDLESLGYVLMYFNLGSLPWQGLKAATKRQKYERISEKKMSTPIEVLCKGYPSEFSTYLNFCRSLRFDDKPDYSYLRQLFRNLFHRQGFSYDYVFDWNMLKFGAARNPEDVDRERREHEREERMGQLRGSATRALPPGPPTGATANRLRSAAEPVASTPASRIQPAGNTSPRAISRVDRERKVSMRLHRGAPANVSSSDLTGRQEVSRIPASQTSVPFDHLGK

GSK3α = GSK3α (Homo sapiens, UniProt P49840); experiment: Selectivity profile (123 kinase panel); format: biochemical
PARP3 = PARP3 (Homo sapiens, UniProt Q9Y6F1); experiment: Selectivity profile (other isoforms of PARP and NRP family); format: biochemical
AXL = AXL (Homo sapiens, UniProt P30530); experiment: Selectivity profile (123 kinase panel); format: biochemical
DAPK1 = DAPK1 (Homo sapiens, UniProt P53355); experiment: Selectivity profile (123 kinase panel); format: biochemical
NIM1K = NIM1K (Homo sapiens, UniProt Q8IY84); experiment: Selectivity profile (123 kinase panel); format: biochemical
NIM1K, sequence (Q8IY84 whole entry): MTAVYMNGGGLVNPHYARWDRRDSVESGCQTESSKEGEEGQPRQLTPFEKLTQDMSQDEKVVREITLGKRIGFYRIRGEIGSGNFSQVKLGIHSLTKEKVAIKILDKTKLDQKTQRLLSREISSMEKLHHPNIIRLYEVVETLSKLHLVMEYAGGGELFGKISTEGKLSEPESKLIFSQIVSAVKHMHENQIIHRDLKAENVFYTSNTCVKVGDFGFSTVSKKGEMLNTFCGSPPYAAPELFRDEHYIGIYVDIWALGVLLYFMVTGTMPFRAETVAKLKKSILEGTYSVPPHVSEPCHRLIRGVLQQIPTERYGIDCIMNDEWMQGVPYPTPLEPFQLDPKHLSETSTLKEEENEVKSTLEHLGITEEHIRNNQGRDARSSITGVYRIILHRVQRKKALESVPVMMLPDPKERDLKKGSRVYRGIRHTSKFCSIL

JNK3 = JNK3 (Homo sapiens, UniProt P53779); experiment: Selectivity profile (123 kinase panel); format: biochemical
JNK3, sequence (P53779 whole entry): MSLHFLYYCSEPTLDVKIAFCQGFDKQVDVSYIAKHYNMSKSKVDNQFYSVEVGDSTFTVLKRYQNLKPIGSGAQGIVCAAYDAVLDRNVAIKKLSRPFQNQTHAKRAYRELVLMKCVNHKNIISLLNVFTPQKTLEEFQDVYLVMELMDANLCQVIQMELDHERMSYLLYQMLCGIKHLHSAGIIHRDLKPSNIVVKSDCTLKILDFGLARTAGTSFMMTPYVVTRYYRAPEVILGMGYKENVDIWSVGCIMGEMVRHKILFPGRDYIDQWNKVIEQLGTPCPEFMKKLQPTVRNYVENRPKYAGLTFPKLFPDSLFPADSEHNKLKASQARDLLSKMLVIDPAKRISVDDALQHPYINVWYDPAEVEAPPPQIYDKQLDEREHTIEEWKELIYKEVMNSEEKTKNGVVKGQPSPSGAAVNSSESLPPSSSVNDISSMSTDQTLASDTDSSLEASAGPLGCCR

HIPK2 = HIPK2 (Homo sapiens, UniProt Q9H2X6); experiment: Selectivity profile (123 kinase panel); format: biochemical
FGR = FGR (Homo sapiens, UniProt P09769); experiment: Selectivity profile (123 kinase panel); format: biochemical
FGFR2 = FGFR2 (Homo sapiens, UniProt P21802); experiment: Selectivity profile (123 kinase panel); format: biochemical
CSF1R = CSF1R (Homo sapiens, UniProt P07333); experiment: Selectivity profile (123 kinase panel); format: biochemical
PARP7 = PARP7 (Homo sapiens, UniProt Q7Z3E1); experiment: Selectivity profile (other isoforms of PARP and NRP family); format: biochemical
MARK1 = MARK1 (Homo sapiens, UniProt Q9P0L2); experiment: Selectivity profile (123 kinase panel); format: biochemical
MDA-MB-231 cells = experiment: In vitro antiproliferation assay (MTT); format: cell-based; settings: Homo sapiens, MDA-MB-231
Procedure: Cell viability was measured by MTT assays. […] Afterward, the medium was removed. MTT (5 mg/mL) was dissolved in phosphate-buffered saline (PBS) and filter-sterilized, and then, 20 μL of the prepared MTT solution was added to each well, and the cells were incubated for another 4 h until a purple precipitate was visible. The supernatant was removed by centrifugation, and DMSO (150 μL/well) was added to dissolve the insoluble crystals. The absorbance was determined using an enzyme-linked immunosorbent assay reader at a test wavelength of 570 nm. The assays were performed three times in a parallel manner. The non-linear regression was used to plot a Dose-Response-Inhibition to determine the value of the IC50. […] The data were analyzed using GraphPad Prism 9 software.

EPHB1 = EPHB1 (Homo sapiens, UniProt P54762); experiment: Selectivity profile (123 kinase panel); format: biochemical
EPHB2 = EPHB2 (Homo sapiens, UniProt P29323); experiment: Selectivity profile (123 kinase panel); format: biochemical

EPHA8, sequence (P29322 28-1005, species assumed): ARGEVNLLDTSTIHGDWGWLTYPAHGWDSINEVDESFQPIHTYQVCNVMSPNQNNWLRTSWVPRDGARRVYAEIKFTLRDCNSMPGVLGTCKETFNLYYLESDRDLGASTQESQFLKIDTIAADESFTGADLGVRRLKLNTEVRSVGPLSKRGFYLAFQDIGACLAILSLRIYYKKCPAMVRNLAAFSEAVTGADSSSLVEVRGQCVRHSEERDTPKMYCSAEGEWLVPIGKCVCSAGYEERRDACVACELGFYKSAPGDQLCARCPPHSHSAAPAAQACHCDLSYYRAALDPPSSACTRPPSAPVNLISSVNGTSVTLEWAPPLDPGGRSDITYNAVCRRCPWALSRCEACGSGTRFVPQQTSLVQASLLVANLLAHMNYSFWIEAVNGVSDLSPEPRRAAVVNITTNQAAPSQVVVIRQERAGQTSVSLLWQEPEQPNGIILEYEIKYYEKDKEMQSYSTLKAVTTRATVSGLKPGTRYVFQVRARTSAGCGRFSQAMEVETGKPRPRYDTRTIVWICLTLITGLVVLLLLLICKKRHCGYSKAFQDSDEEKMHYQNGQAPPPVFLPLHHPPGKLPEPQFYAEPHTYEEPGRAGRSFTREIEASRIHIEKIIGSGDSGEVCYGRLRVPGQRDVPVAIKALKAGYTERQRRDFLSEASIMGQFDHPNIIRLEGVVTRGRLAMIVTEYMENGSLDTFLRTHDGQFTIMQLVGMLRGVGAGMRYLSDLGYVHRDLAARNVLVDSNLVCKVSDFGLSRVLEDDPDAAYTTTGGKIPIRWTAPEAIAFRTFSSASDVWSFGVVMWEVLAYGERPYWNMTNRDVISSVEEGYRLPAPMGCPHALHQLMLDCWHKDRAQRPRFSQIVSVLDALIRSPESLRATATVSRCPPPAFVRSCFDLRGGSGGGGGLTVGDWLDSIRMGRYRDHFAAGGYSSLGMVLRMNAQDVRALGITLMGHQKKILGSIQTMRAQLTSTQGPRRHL

NC(N)=NCCC[C@H](NCN1CCN(C(=O)c2cc(Cc3n[nH]c(=O)c4ccccc34)ccc2F)CC1)C(=O)O [PPNR-4]
IC50 (FLT4): > 10 µM | IC50 (EPHA8): > 10 µM | IC50 (AMPKα1/β1/γ1): > 10 µM | IC50 (JAK1): > 10 µM | IC50 (HIPK4): > 10 µM | IC50 (GLK): > 10 µM | IC50 (FER): > 10 µM | IC50 (MSK1): > 10 µM | IC50 (DYRK4): > 10 µM | IC50 (ALK): > 10 µM | IC50 (NEK2): > 10 µM | IC50 (CLK1): > 10 µM | IC50 (CK1α): > 10 µM | IC50 (HIPK1): > 10 µM | IC50 (ALK6): > 10 µM | IC50 (BLK): > 10 µM | IC50 (MET): > 10 µM | IC50 (CSK): > 10 µM | IC50 (BRAF): > 10 µM | IC50 (CK1ε): > 10 µM | IC50 (GSK3α): > 10 µM | IC50 (PARP3): > 10 µM | IC50 (AXL): > 10 µM | IC50 (DAPK1): > 10 µM | IC50 (NIM1K): > 10 µM | IC50 (JNK3): > 10 µM | IC50 (HIPK2): > 10 µM | IC50 (FGR): > 10 µM | IC50 (FGFR2): > 10 µM | IC50 (CSF1R): > 10 µM | IC50 (PARP7): > 10 µM | IC50 (MARK1): > 10 µM | IC50 (MDA-MB-231 cells; 168 h, concentration needed to reduce cell growth by 50% following 7 days cell treatment, read-out: IC50): 0.21 µM | inhibition at 2 µM (MDA-MB-231 cells; 2 μM, read-out: cell inhibition rate): > 80% | IC50 (EPHB1): > 10 µM | IC50 (EPHB2): > 10 µM
